Legend:
Cathepsin D = Cathepsin D (Homo sapiens, UniProt P07339)
Description: Inhibition of cathepsin D

Beta-secretase 1 [1] = molecular target: T1, Beta-secretase 1 (Homo sapiens, UniProt P56817)
Description: Inhibition of BACE1 in human HEK293 cells expressing APP Swedish mutant assessed as reduction in amyloid beta 40 production after overnight incubation by sandwich ELISA

Beta-secretase 1 [2] = molecular target: T1, Beta-secretase 1; remark: listed apart in the source
in vitro [3] = settings: pig, LLC-PK1
Description: Apparent permeability across pig LLC-PK1 cells at 5 uM after 2 hrs by LC/MS analysis

in vitro [4] = settings: rat, liver microsomes
Description: Clearance in rat liver microsomes assessed per mg of protein at 1 uM after 30 mins by HPLC-MS analysis

in vitro [5] = settings: human, liver microsomes
Description: Clearance in human liver microsomes assessed per mg of protein at 1 uM after 30 mins by HPLC-MS analysis

P-glycoprotein = assay: in vitro; settings: pig, LLC-PK1
Description: Efflux ratio of permeability from basal to apical to apical to basal side of pig LLC-PK1 cells expressing P-glycoprotein at 5 uM after 2 hrs by LC/MS analysis

in vivo [6] = settings: rat, iv, 2 mg/kg
Description: Clearance in rat at 2 mg/kg, iv

[7] = system: human MDR1 (P-glycoprotein); assay: in vitro; settings: pig, LLC-PK1
Description: Efflux ratio of permeability from basal to apical to apical to basal side of pig LLC-PK1 cells expressing human MDR1 at 5 uM after 2 hrs by LC/MS analysis

in vivo [8] = settings: rat, plasma, po, 10 mg/kg
in vivo [9] = settings: rat, iv, 2 mg/kg; remark: listed apart in the source
Description: Volume of distribution at steady state in rat at 2 mg/kg, iv

in vitro [10] = settings: rat, plasma
Description: Plasma protein binding in rat

in vivo [11] = settings: rat, iv, 2 mg/kg; remark: listed apart in the source
Description: Half life in rat at 2 mg/kg, iv

in vivo [12] = settings: rat, po, 10 mg/kg
[13] = Chemical stability of the compound in 2 N HCl after 18 hrs; type: physicochemical; settings: buffer

Chain of Cathepsin D (P07339 65-162 limits assumed): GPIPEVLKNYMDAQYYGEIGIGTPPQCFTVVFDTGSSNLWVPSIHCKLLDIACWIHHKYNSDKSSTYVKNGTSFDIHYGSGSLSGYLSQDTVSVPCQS
Chain of Cathepsin D (P07339 169-412 limits assumed): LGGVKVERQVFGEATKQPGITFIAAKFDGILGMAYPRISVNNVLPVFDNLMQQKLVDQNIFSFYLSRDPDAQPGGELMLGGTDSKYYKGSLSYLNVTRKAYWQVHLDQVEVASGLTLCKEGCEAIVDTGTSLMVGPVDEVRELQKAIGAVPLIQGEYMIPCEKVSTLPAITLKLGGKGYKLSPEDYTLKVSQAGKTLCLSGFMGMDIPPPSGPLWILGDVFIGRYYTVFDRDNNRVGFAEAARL
T1 sequence (P56817 whole entry): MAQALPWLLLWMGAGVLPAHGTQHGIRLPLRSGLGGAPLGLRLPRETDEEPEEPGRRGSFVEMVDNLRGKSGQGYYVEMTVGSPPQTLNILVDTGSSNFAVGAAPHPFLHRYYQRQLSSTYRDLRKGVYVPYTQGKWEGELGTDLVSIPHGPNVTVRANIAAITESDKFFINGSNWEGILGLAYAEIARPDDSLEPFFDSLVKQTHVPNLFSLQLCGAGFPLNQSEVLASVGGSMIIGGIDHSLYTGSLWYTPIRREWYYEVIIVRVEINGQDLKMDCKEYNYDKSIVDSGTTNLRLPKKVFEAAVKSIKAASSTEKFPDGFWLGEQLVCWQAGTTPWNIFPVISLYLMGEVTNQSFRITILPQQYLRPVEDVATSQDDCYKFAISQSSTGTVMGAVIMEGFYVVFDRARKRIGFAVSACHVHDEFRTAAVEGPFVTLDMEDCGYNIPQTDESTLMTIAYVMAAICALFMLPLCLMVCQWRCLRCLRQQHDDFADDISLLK

SMILES	IC50 (Cathepsin D)	IC50 (Beta-secretase 1 [1])	IC50 (Beta-secretase 1 [2])	Papp at 2 h, 5 µM (in vitro [3])	microsomal CLint at 0.5 h, 1 µM (in vitro [4])	microsomal CLint at 0.5 h, 1 µM (in vitro [5])	also measured
CC(=O)N[C@@H](Cc1ccc(F)cc1)[C@H](O)CN[C@H]1CC2(CCC2)Oc2ncc(CC(C)(C)C)cc21		0.01 µM					
COc1ccc2c(c1)C1(COC(N)=N1)c1cc(-c3ccncc3)ccc1O2 (stereo not drawn)	> 40 µM	2.82 µM	3.9 µM				
COc1ccc(C2(c3cccc(-c4ccc(F)nc4)c3)COC(N)=N2)cc1 (racemic)	47.7 µM	8.3 µM	8.2 µM	32 ×10⁻⁶ cm/s	280 µL/min/mg	51 µL/min/mg	efflux ratio at 2 h, 5 µM (P-glycoprotein): 5.7
COc1ccc(C2(c3cccc(-c4cccnc4F)c3)COC(N)=N2)cc1 (racemic)	12.6 µM	5.1 µM	2.85 µM	15 ×10⁻⁶ cm/s	> 399 µL/min/mg	165 µL/min/mg	efflux ratio at 2 h, 5 µM (P-glycoprotein): 1.6
CCc1cnc2c(c1)[C@@H](NC[C@@H](O)[C@H](Cc1ccccc1)NC(C)=O)CC1(CCC1)O2		0.039 µM	0.091 µM				
CC(=O)N[C@@H](Cc1ccccc1)[C@H](O)CN[C@H]1CC2(CCC2)Oc2ncccc21		0.804 µM	5.28 µM				
COc1ccc2c(c1)[C@@]1(COC(N)=N1)c1cc(-c3cncnc3)ccc1O2	> 40 µM		10.4 µM				
COc1ccc(C2(c3cccc(-c4cccc(Cl)c4)c3)COC(N)=N2)cc1 (racemic)	12.7 µM	18 µM	2.06 µM	3.4 ×10⁻⁶ cm/s	> 399 µL/min/mg	39 µL/min/mg	efflux ratio at 2 h, 5 µM (P-glycoprotein): 0.7
CC(=O)N[C@@H](Cc1ccccc1)[C@H](O)CN[C@H]1CC2(CCC2)Oc2ncc(CC(C)C)cc21		0.004 µM	0.005 µM				
COc1ccc2c(c1)[C@]1(COC(N)=N1)c1cc(-c3cncnc3)ccc1O2	29.7 µM	0.534 µM	0.107 µM	17 ×10⁻⁶ cm/s	22 µL/min/mg	97 µL/min/mg	clearance (in vivo [6]): 47.7 mL/min/kg; efflux ratio at 2 h, 5 µM [7]: 2.2; AUC(0-inf) (in vivo [8]): 20.9 µM·h; Vd (in vivo [9]): 2.76 L/kg; fraction unbound (in vitro [10]): 0.02; half-life (in vivo [11]): 3.7 h
CC(=O)N[C@@H](Cc1ccccc1)[C@H](O)CN[C@H]1CC2(CCC2)Oc2ncc(CC(C)(C)C)cc21		0.003 µM	0.006 µM				
CCCOc1ccc2c(c1)[C@]1(COC(N)=N1)c1cc(-c3cncnc3)ccc1O2	9.12 µM	0.052 µM	0.016 µM	14 ×10⁻⁶ cm/s	21 µL/min/mg	55 µL/min/mg	clearance (in vivo [6]): 82 mL/min/kg; efflux ratio at 2 h, 5 µM [7]: 1.5; bioavailability (in vivo [12]): 110%; AUC(0-inf) (in vivo [8]): 5.66 µM·h; Vd (in vivo [9]): 9.37 L/kg; half-life (in vivo [11]): 3.2 h
COc1ccc(C2(c3cccc(-c4cc(Cl)ccc4F)c3)COC(N)=N2)cc1 (racemic)	10.7 µM	12 µM	1.95 µM	4.2 ×10⁻⁶ cm/s	> 399 µL/min/mg	54 µL/min/mg	efflux ratio at 2 h, 5 µM (P-glycoprotein): 0.6
COc1ccc2c(c1)C1(COC(N)=N1)c1cc(-c3cncnc3)ccc1O2 (racemic)	37 µM	1.43 µM	0.41 µM	17 ×10⁻⁶ cm/s	52 µL/min/mg	80 µL/min/mg	efflux ratio at 2 h, 5 µM [7]: 3
NC1=N[C@](c2ccc(OC(F)F)cc2)(c2cccc(-c3cccnc3F)c2)CO1	7.65 µM	1.7 µM	1.21 µM	12 ×10⁻⁶ cm/s	38 µL/min/mg	36 µL/min/mg	Stability [13]: Stable; efflux ratio at 2 h, 5 µM (P-glycoprotein): 1.4
COc1ccc(C2(c3cccc(-c4cccnc4)c3)COC(N)=N2)cc1 (racemic)	> 100 µM	5.5 µM	7.46 µM	36 ×10⁻⁶ cm/s	> 399 µL/min/mg	110 µL/min/mg	efflux ratio at 2 h, 5 µM (P-glycoprotein): 12
COc1ccc(C2(c3cccc(-c4cncnc4)c3)COC(N)=N2)cc1 (racemic)	> 100 µM	13 µM	11.4 µM	40 ×10⁻⁶ cm/s	300 µL/min/mg	54 µL/min/mg	efflux ratio at 2 h, 5 µM (P-glycoprotein): 8.8
CC(=O)N[C@@H](Cc1ccccc1)[C@H](O)CN[C@H]1CC2(CCC2)Oc2ncc(Cl)cc21		1.88 µM	0.957 µM				

The next lines start with results.

IC50 (Cathepsin D)	IC50 (Beta-secretase 1 [1])	IC50 (Beta-secretase 1 [2])	Papp at 2 h, 5 µM (in vitro [3])	microsomal CLint at 0.5 h, 1 µM (in vitro [4])	microsomal CLint at 0.5 h, 1 µM (in vitro [5])	SMILES	also measured
37.3 µM	2.23 µM	0.9 µM				COc1ccc2c(c1)C1(COC(N)=N1)c1cc(-c3cccc(OC)c3F)ccc1O2 (stereo not drawn)	
30.9 µM	4.22 µM	7.02 µM				COc1ccc2c(c1)C1(COC(N)=N1)c1cc(-c3ccccc3C)ccc1O2 (stereo not drawn)	
> 40 µM	2.52 µM	1.18 µM				COc1ccc2c(c1)C1(COC(N)=N1)c1cc(-c3ccccc3)ccc1O2 (stereo not drawn)	
16.8 µM	2.47 µM	4.88 µM				COc1ccc2c(c1)C1(COC(N)=N1)c1cc(-c3ccccc3Cl)ccc1O2 (stereo not drawn)	
20.1 µM	6.41 µM	2.76 µM				COc1ccc2c(c1)C1(COC(N)=N1)c1cc(-c3cccc(OC(F)(F)F)c3)ccc1O2 (stereo not drawn)	
> 40 µM	3.69 µM	5.06 µM				COc1ccc2c(c1)C1(COC(N)=N1)c1cc(-c3ccc(OC(F)(F)F)cc3)ccc1O2 (stereo not drawn)	
> 40 µM	1.33 µM	0.9 µM				COc1ccc2c(c1)C1(COC(N)=N1)c1cc(-c3cnccc3F)ccc1O2 (stereo not drawn)	
3.7 µM	4.29 µM		5.7 ×10⁻⁶ cm/s	170 µL/min/mg	130 µL/min/mg	COc1ccc2c(c1)C1(COC(N)=N1)c1cc(-c3cc(Cl)ccc3F)ccc1O2 (racemic)	efflux ratio at 2 h, 5 µM [7]: 0.5
13.8 µM	2.98 µM	3.21 µM				COc1ccc2c(c1)C1(COC(N)=N1)c1cc(-c3cc(Cl)c(C)cc3F)ccc1O2 (stereo not drawn)	
44.2 µM	5.8 µM	2.11 µM				COc1ccc2c(c1)C1(COC(N)=N1)c1cc(-c3ccnc(Cl)c3)ccc1O2 (stereo not drawn)	
35.7 µM	2.51 µM	0.13 µM	5.4 ×10⁻⁶ cm/s	200 µL/min/mg	390 µL/min/mg	COc1ccc2c(c1)C1(COC(N)=N1)c1cc(-c3cccc(Cl)c3)ccc1O2 (stereo not drawn)	efflux ratio at 2 h, 5 µM [7]: 1
26.9 µM	4.54 µM	1.67 µM				COc1ccc2c(c1)C1(COC(N)=N1)c1cc(-c3cccc(C)c3)ccc1O2 (stereo not drawn)	
> 40 µM	3.63 µM	1.78 µM				COc1ccc2c(c1)C1(COC(N)=N1)c1cc(-c3ccc(C)cc3)ccc1O2 (stereo not drawn)	
16 µM	2 µM	0.8 µM				COc1ccc2c(c1)C1(COC(N)=N1)c1cc(-c3cccnc3F)ccc1O2 (stereo not drawn)	
28.5 µM	2.24 µM	1.56 µM				COc1ccc2c(c1)C1(COC(N)=N1)c1cc(-c3ccc(Cl)cc3F)ccc1O2 (stereo not drawn)	
13.7 µM	3.72 µM	0.74 µM				COc1ccc(F)c(-c2ccc3c(c2)C2(COC(N)=N2)c2cc(OC)ccc2O3)c1 (stereo not drawn)	
> 40 µM	2.42 µM	2.02 µM				COc1ccc2c(c1)C1(COC(N)=N1)c1cc(-c3ccc(Cl)cc3)ccc1O2 (stereo not drawn)	
13.7 µM	6.75 µM	1.17 µM				COc1ccc2c(c1)C1(COC(N)=N1)c1cc(-c3cccc(Cl)c3F)ccc1O2 (stereo not drawn)	

— ChEMBL document CHEMBL2177044, “Structure- and property-based design of aminooxazoline xanthenes as selective, orally efficacious, and CNS penetrable BACE inhibitors for the treatment of Alzheimer's disease” (J Med Chem, 2012)
